This is an account of results in patent publication US20180362559A1, “BONE ACTIVE NITROGEN-CONTAINING BISPHOSPHONATES WITH A NEAR INFRARED FLUORESCENT LABEL” (University of Southern California, priority 2015, published 2018).

In one assay the test system is osteoclast (OC). Briefly: osteoclast (OC) inhibitory activity in vitro using mouse bone marrow cells (osteoclast culture). Type of assay: cell-based. Conditions: for activity in osteoclast culture assay: in vitro, qualitative ranking; for OC numbers: mouse bone marrow cells, vehicle 239+/−17. As for the experimental part:
To determine if these AF-BP structural modifications improved the osteoclast (OC) inhibitory activity, these modifications were tested in vitro using mouse bone marrow cells.

In a further assay the test system is bone slice resorption. The experiment in a line: bone slice resorption assay. Type of assay: cell-based. Conditions: in vitro, qualitative ranking.

Consider `O=C(CCNC(=O)c1ccc(-c2c3ccc(=O)cc-3oc3cc(O)ccc23)c(C(=O)O)c1)NCC(O)C[n+]1cccc(CC(O)(P(=O)(O)O)P(=O)(O)O)c1` (centres unmarked) [Compound 13, 1-(3-(3-(3-carboxy-4-(6-hydroxy-1-oxo-3H-xanthen-9-yl)benzamido)propanamido)-2-hydroxypropyl)-3-(2-hydroxy-2,2-diphosphonoethyl)pyridin-1-ium], for which, in the assay with osteoclast (OC), the “activity in osteoclast culture assay” value is given as “most active”. Besides, in the assay on bone slice resorption, the “activity in bone slice resorption assay” value was “most active”.

As to `O=C(CCOCCOCCOCCOCCNC(=O)c1ccc(C(=O)O)c(-c2c3ccc(=O)cc-3oc3cc(O)ccc23)c1)NCC(O)C[n+]1cccc(CC(O)(P(=O)(O)O)P(=O)(O)O)c1` (centres unmarked) [Compound 22], in the assay with osteoclast (OC), the “activity in osteoclast culture assay” value is recorded as “most active”. For the same molecule, the “activity in bone slice resorption assay” value in the assay with bone slice resorption was “most active”.

As to `O=P(O)(O)C(O)(Cc1cccnc1)P(=O)(O)O` [RIS, (1-hydroxy-2-pyridin-3-ylethane-1,1-diyl)bis(phosphonic acid), reference compound], the OC numbers with osteoclast (OC) (0.1 uM) is recorded as 214+/−37; in the assay on osteoclast (OC) (1 uM) it was 220+/−28; in the assay with osteoclast (OC) (10 uM), 143+/−21.

Take `O=C(CCNC(=O)c1ccc(C(=O)O)c(-c2c3ccc(=O)cc-3oc3cc(O)ccc23)c1)NCC(O)C[n+]1cccc(CC(O)(P(=O)(O)O)P(=O)(O)O)c1` (centres unmarked) [Compound 14, 1-(3-(3-(4-carboxy-3-(6-hydroxy-3-oxo-3H-xanthen-9-yl)benzamido)propanamido)-2-hydroxypropyl)-3-(2-hydroxy-2,2-diphosphonoethyl)pyridin-1-ium]: in the assay with osteoclast (OC), the “activity in osteoclast culture assay” value is recorded as “most active”. Moreover, the “activity in bone slice resorption assay” value with bone slice resorption was “most active”.

Regarding `O=C(CCOCCOCCOCCOCCNC(=O)c1ccc(-c2c3ccc(=O)cc-3oc3cc(O)ccc23)c(C(=O)O)c1)NCC(O)C[n+]1cccc(CC(O)(P(=O)(O)O)P(=O)(O)O)c1` (centres unmarked) [Compound 21, 1-(1-(3-carboxy-4-(6-hydroxy-3-oxo-3H-xanthen-9-yl)phenyl)-20-hydroxy-1,17-dioxo-5,8,11,14-tetraoxa-2,18-diazahenicosan-21-yl)-3-(2-hydroxy-2,2-diphosphonoethyl)pyridin-1-ium], the “activity in osteoclast culture assay” value in the assay on osteoclast (OC) is recorded as “most active”. For the same molecule, the “activity in bone slice resorption assay” value in the assay with bone slice resorption is recorded as “most active”.
